Results as given in patent publication US6441195B1, “Substituted sulphonylamino(thio) carbonyl compounds” (Bayer Aktiengesellschaft, priority 1995, dated 2002).

Columns and labels:
Format in all cases: in vivo
Ambrosia = test: Pre-emergence test/Greenhouse, Ambrosia; settings: after three weeks
Summary of the method: (§1)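 Emulsifier-formulated compound applied by soil watering ~24 h after sowing; damage scored at three weeks as % of untreated control.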

Maize = test: Pre-emergence test/Greenhouse, Maize; settings: in vivo
Summary of the method: as §1

Matricaria = test: Pre-emergence test/Greenhouse, Matricaria; settings: after three weeks
Summary of the method: as §1

Lolium = test: Pre-emergence test/Greenhouse, Lolium; settings: after three weeks
Summary of the method: as §1

Soya beans = test: Pre-emergence test/Greenhouse, Soya beans; settings: in vivo
Summary of the method: as §1

Solanum = test: Pre-emergence test/Greenhouse, Solanum; settings: after three weeks
Summary of the method: as §1

Sorghum = test: Pre-emergence test/Greenhouse, Sorghum; settings: after three weeks
Summary of the method: as §1

weeds = test: Pre-emergence test (greenhouse), activity against weeds; settings: in words
Summary of the method: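 Three weeks after treatment, % damage relative to untreated plants is scored, 0% meaning no effect. Seeds in normal soil received, roughly one day post-sowing, an aqueous dilution of an acetone/emulsifier concentrate, with the rate per unit area, not concentration, being the relevant dose.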

Poa = test: Pre-emergence test/Greenhouse, Poa; settings: after three weeks
Summary of the method: as §1

With `CCOC(=O)c1cccc(Cl)c1S(=O)(=O)NC(=O)n1nc(SC)n(C)c1=O` [Example 131] the “degree of damage to the plants (% damage vs untreated control), Ambrosia” value (Ambrosia; 250 g of ai./ha) was 95%, the “degree of damage to the plants (% damage vs untreated control), Maize” value (“degree … (% damage vs untreated control), Maize” for short) (Maize) was 0% and the “degree of damage to the plants (% damage vs untreated control), Matricaria” value (Matricaria; 250 g of ai./ha) was 80%. For the same compound, the “degree of damage to the plants (% damage vs untreated control), Lolium” value (shortened to “degree … (% damage vs untreated control), Lolium”) (Lolium; 250 g of ai./ha) was 95%, the “degree of damage to the plants (% damage vs untreated control), Soya beans” value (Soya beans) was 0% and the “degree of damage to the plants (% damage vs untreated control), Solanum” value (Solanum; 250 g of ai./ha) was 95%. For the same compound, the “degree of damage to the plants (% damage vs untreated control), Sorghum” value (Sorghum; 250 g of ai./ha) was 90%, the activity against weeds (weeds) was “very strong activity against weeds” and the “degree of damage to the plants (% damage vs untreated control), Poa” value (“degree … (% damage vs untreated control), Poa” for short) (Poa; 250 g of ai./ha) was 90%.
`CCCOC(=O)c1cccc(Cl)c1S(=O)(=O)NC(=O)n1nc(OCC)n(C)c1=O` [Example 134] was tested, and the “degree of damage to the plants (% damage vs untreated control), Ambrosia” value (Ambrosia; 500 g of ai./ha) was 80%, the “degree … (% damage vs untreated control), Maize” value (Maize) was 0% and the “degree of damage to the plants (% damage vs untreated control), Matricaria” value (Matricaria; 500 g of ai./ha) was 90%. The “degree … (% damage vs untreated control), Lolium” value (Lolium; 500 g of ai./ha) was 95%, the “degree of damage to the plants (% damage vs untreated control), Soya beans” value (Soya beans) was 20% and the “degree of damage to the plants (% damage vs untreated control), Solanum” value (Solanum; 500 g of ai./ha) was 95%. For the same compound, the “degree of damage to the plants (% damage vs untreated control), Sorghum” value (Sorghum; 500 g of ai./ha) was 70%, the activity against weeds (weeds) was “very strong activity against weeds” and the “degree … (% damage vs untreated control), Poa” value (Poa; 500 g of ai./ha) was 90%.
With `CCOc1nn(C(=O)NS(=O)(=O)c2c(OC)cccc2C(=O)OC)c(=O)n1C` [Example 136] the “degree of damage to the plants (% damage vs untreated control), Ambrosia” value (Ambrosia; 125 g of ai./ha) was 80%, the “degree … (% damage vs untreated control), Maize” value (Maize) was 30% and the “degree of damage to the plants (% damage vs untreated control), Matricaria” value (Matricaria; 125 g of ai./ha) was 90%. The “degree … (% damage vs untreated control), Lolium” value (Lolium; 125 g of ai./ha) was 95%, the “degree of damage to the plants (% damage vs untreated control), Soya beans” value (Soya beans) was 20% and the “degree of damage to the plants (% damage vs untreated control), Solanum” value (Solanum; 125 g of ai./ha) was 95%. For the same compound, the “degree of damage to the plants (% damage vs untreated control), Sorghum” value (Sorghum; 125 g of ai./ha) was 90%, the activity against weeds (weeds) was “very strong activity against weeds” and the “degree … (% damage vs untreated control), Poa” value (Poa; 125 g of ai./ha) was 95%.
In the case of `COC(=O)c1cccc(C)c1S(=O)(=O)[N-]C(=O)n1nc(SC)n(C)c1=O.[Na+]` [Example 145], the “degree of damage to the plants (% damage vs untreated control), Ambrosia” value (Ambrosia; 60 g of ai./ha) is reported as 95%, the “degree … (% damage vs untreated control), Maize” value (Maize) is reported as 0% and the “degree of damage to the plants (% damage vs untreated control), Matricaria” value (Matricaria; 60 g of ai./ha) is reported as 60%. The “degree … (% damage vs untreated control), Lolium” value (Lolium; 60 g of ai./ha) was 95%, the “degree of damage to the plants (% damage vs untreated control), Soya beans” value (Soya beans) was 0% and the “degree of damage to the plants (% damage vs untreated control), Solanum” value (Solanum; 60 g of ai./ha) was 95%. For the same compound, the “degree of damage to the plants (% damage vs untreated control), Sorghum” value (Sorghum; 60 g of ai./ha) was 95%, the activity against weeds (weeds) was “very strong activity against weeds” and the “degree … (% damage vs untreated control), Poa” value (Poa; 60 g of ai./ha) was 95%.
For `C=CCOc1nn(C(=O)NS(=O)(=O)c2c(C)cccc2C(=O)OC)c(=O)n1C` [Example 148], the “degree of damage to the plants (% damage vs untreated control), Ambrosia” value (Ambrosia; 60 g of ai./ha) was 80%, the “degree … (% damage vs untreated control), Maize” value (Maize) was 40% and the “degree of damage to the plants (% damage vs untreated control), Matricaria” value (Matricaria; 60 g of ai./ha) was 80%. For the same compound, the “degree … (% damage vs untreated control), Lolium” value (Lolium; 60 g of ai./ha) was 80%, the “degree of damage to the plants (% damage vs untreated control), Soya beans” value (Soya beans) was 0% and the “degree of damage to the plants (% damage vs untreated control), Solanum” value (Solanum; 60 g of ai./ha) was 95%. The “degree of damage to the plants (% damage vs untreated control), Sorghum” value (Sorghum; 60 g of ai./ha) was 90%, the activity against weeds (weeds) was “very strong activity against weeds” and the “degree … (% damage vs untreated control), Poa” value (Poa; 60 g of ai./ha) was 95%.
`COC(=O)c1cccc(C)c1S(=O)(=O)NC(=O)n1nc(SCC(F)(F)F)n(C2CC2)c1=O` [Example 149] was tested, and the “degree of damage to the plants (% damage vs untreated control), Ambrosia” value (Ambrosia; 125 g of ai./ha) was 95%, the “degree … (% damage vs untreated control), Maize” value (Maize) was 0% and the “degree of damage to the plants (% damage vs untreated control), Matricaria” value (Matricaria; 125 g of ai./ha) was 95%. The “degree … (% damage vs untreated control), Lolium” value (Lolium; 125 g of ai./ha) was 95%, the “degree of damage to the plants (% damage vs untreated control), Soya beans” value (Soya beans) was 30% and the “degree of damage to the plants (% damage vs untreated control), Solanum” value (Solanum; 125 g of ai./ha) was 95%. For the same compound, the “degree of damage to the plants (% damage vs untreated control), Sorghum” value (Sorghum; 125 g of ai./ha) was 80%, the activity against weeds (weeds) was “very strong activity against weeds” and the “degree … (% damage vs untreated control), Poa” value (Poa; 125 g of ai./ha) was 95%.
In the case of `CCCc1nn(C(=O)[N-]S(=O)(=O)c2c(C)cccc2C(=O)OC)c(=O)n1C.[Na+]` [Example 154], the “degree of damage to the plants (% damage vs untreated control), Ambrosia” value (Ambrosia; 60 g of ai./ha) is reported as 70%, the “degree … (% damage vs untreated control), Maize” value (Maize) is reported as 0% and the “degree of damage to the plants (% damage vs untreated control), Matricaria” value (Matricaria; 60 g of ai./ha) is reported as 70%. For the same compound, the “degree … (% damage vs untreated control), Lolium” value (Lolium; 60 g of ai./ha) was 95%, the “degree of damage to the plants (% damage vs untreated control), Soya beans” value (Soya beans) was 0% and the “degree of damage to the plants (% damage vs untreated control), Solanum” value (Solanum; 60 g of ai./ha) was 90%. For the same compound, the “degree of damage to the plants (% damage vs untreated control), Sorghum” value (Sorghum; 60 g of ai./ha) was 95%, the activity against weeds (weeds) was “very strong activity against weeds” and the “degree … (% damage vs untreated control), Poa” value (Poa; 60 g of ai./ha) was 95%.
`COC(=O)c1cccc(C)c1S(=O)(=O)NC(=O)n1nc(SC)n(OC)c1=O` [Example 156] was tested, and the “degree of damage to the plants (% damage vs untreated control), Ambrosia” value (Ambrosia; 60 g of ai./ha) was 70%, the “degree … (% damage vs untreated control), Maize” value (Maize) was 0% and the “degree of damage to the plants (% damage vs untreated control), Matricaria” value (Matricaria; 60 g of ai./ha) was 95%. For the same compound, the “degree … (% damage vs untreated control), Lolium” value (Lolium; 60 g of ai./ha) was 70%, the “degree of damage to the plants (% damage vs untreated control), Soya beans” value (Soya beans) was 10% and the “degree of damage to the plants (% damage vs untreated control), Solanum” value (Solanum; 60 g of ai./ha) was 70%. For the same compound, the “degree of damage to the plants (% damage vs untreated control), Sorghum” value (Sorghum; 60 g of ai./ha) was 70%, the activity against weeds (weeds) was “very strong activity against weeds” and the “degree … (% damage vs untreated control), Poa” value (Poa; 60 g of ai./ha) was 90%.
For `CCSc1nn(C(=O)NS(=O)(=O)c2c(C)cccc2C(=O)OC)c(=O)n1OC` [Example 157], the “degree of damage to the plants (% damage vs untreated control), Ambrosia” value (Ambrosia; 60 g of ai./ha) was 95%, the “degree … (% damage vs untreated control), Maize” value (Maize) was 0% and the “degree of damage to the plants (% damage vs untreated control), Matricaria” value (Matricaria; 60 g of ai./ha) was 100%. The “degree … (% damage vs untreated control), Lolium” value (Lolium; 60 g of ai./ha) was 90%, the “degree of damage to the plants (% damage vs untreated control), Soya beans” value (Soya beans) was 20% and the “degree of damage to the plants (% damage vs untreated control), Solanum” value (Solanum; 60 g of ai./ha) was 90%. The “degree of damage to the plants (% damage vs untreated control), Sorghum” value (Sorghum; 60 g of ai./ha) was 80%, the activity against weeds (weeds) was “very strong activity against weeds” and the “degree … (% damage vs untreated control), Poa” value (Poa; 60 g of ai./ha) was 80%.
With `C#CCSc1nn(C(=O)NS(=O)(=O)c2c(C)cccc2C(=O)OC)c(=O)n1C1CC1` [Example 160] the “degree of damage to the plants (% damage vs untreated control), Ambrosia” value (Ambrosia; 60 g of ai./ha) was 90%, the “degree … (% damage vs untreated control), Maize” value (Maize) was 30% and the “degree of damage to the plants (% damage vs untreated control), Matricaria” value (Matricaria; 60 g of ai./ha) was 95%. The “degree … (% damage vs untreated control), Lolium” value (Lolium; 60 g of ai./ha) was 90%, the “degree of damage to the plants (% damage vs untreated control), Soya beans” value (Soya beans) was 10% and the “degree of damage to the plants (% damage vs untreated control), Solanum” value (Solanum; 60 g of ai./ha) was 90%. The “degree of damage to the plants (% damage vs untreated control), Sorghum” value (Sorghum; 60 g of ai./ha) was 60%, the activity against weeds (weeds) was “very strong activity against weeds” and the “degree … (% damage vs untreated control), Poa” value (Poa; 60 g of ai./ha) was 90%.
